Measured values reported in ChEMBL document CHEMBL4665834 (J Med Chem, 2020).
Activity calls are given as the source filed them. No cut-off for these calls is given here.

How the values were obtained:
[1] = Clearance in Wistar rat hepatocytes assessed as extrapolated blood clearance at 1 uM measured after 2 to 90 mins by LC-MS/MS analysis; format: ADME, cell-based, Hepatocyte; settings: time 2-90 min
[2] = Efflux ratio of apparent permeability across basolateral to apical side over apical to basolateral side in human Caco-2 cells measured after 2 hrs by HPLC analysis; format: ADME, cell-based
Homo sapiens [3] = species: Homo sapiens; assay: Selectivity ratio of IC50 for displacement of [3H]prostaglandin E2 from full-length recombinant human EP4 receptor expressed in Chem-1 cell membranes to IC50 for displacement of [3H]PGF2alpha from full-length recombinant human FP receptor expressed in HEK293 cell membranes
[4] = Clearance in Wistar rat at 0.3 to 1 mg/kg, iv administered as bolus dose by LC-MS/MS analysis; format: ADME, organism-based; settings: in vivo, dose 0.3-1 mg/kg
[5] = Half life in Wistar rat at 0.3 to 1 mg/kg, iv administered as bolus dose by LC-MS/MS analysis; format: ADME, organism-based; settings: in vivo, dose 0.3-1 mg/kg
Cytochrome P450 2C8 = Cytochrome P450 2C8 (Homo sapiens, UniProt P10632); assay: Inhibition of CYP2C8 in human liver microsomes using amodiaquine as substrate incubated for 15 mins in presence of NADPH generating system by LC-MS/MS analysis; format: ADME
Cytochrome P450 2C8, sequence (P10632 whole entry): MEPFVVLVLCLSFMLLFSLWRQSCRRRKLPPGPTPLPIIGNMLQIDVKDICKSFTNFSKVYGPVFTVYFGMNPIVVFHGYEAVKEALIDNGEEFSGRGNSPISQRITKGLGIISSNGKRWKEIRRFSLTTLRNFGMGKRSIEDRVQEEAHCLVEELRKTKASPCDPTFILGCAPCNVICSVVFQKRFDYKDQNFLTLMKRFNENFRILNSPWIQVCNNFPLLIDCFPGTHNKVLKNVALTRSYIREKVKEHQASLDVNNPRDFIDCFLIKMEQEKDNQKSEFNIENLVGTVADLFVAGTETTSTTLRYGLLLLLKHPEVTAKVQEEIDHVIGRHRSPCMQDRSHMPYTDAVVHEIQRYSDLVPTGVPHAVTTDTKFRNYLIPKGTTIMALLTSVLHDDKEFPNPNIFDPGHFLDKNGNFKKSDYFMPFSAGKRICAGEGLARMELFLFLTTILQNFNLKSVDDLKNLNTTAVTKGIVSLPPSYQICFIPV

Cytochrome P450 3A4 = Cytochrome P450 3A4 (Homo sapiens, UniProt P08684); assay: Inhibition of CYP3A4 in human liver microsomes using midazolam as substrate incubated for 10 mins in presence of NADPH generating system by LC-MS/MS analysis
Cytochrome P450 3A4, sequence (P08684 whole entry): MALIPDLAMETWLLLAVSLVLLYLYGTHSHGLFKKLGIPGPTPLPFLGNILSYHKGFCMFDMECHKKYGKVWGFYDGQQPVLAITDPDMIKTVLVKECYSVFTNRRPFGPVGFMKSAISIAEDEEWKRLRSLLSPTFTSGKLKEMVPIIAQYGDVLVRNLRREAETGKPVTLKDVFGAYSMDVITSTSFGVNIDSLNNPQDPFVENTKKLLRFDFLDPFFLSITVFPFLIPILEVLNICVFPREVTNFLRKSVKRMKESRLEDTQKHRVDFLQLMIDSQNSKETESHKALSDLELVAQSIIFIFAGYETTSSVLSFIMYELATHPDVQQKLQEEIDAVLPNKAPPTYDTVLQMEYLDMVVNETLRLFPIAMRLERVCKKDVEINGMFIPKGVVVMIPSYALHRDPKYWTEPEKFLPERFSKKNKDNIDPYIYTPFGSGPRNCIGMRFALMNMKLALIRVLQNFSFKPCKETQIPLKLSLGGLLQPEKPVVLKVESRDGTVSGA

[6] = Oral bioavailability in Wistar rat at 1 to 3 mg/kg administered via gavage using EtOH/PEG400/H2O/DMSO 8/40/50/2 formulation by LC-MS/MS analysis; format: ADME, organism-based; settings: in vivo, dose 1-3 mg/kg
Cytochrome P450 1A2 = Cytochrome P450 1A2 (Homo sapiens, UniProt P05177); assay: Inhibition of CYP1A2 in human liver microsomes using phenacetin as substrate incubated for 15 mins in presence of NADPH generating system by LC-MS/MS analysis; format: ADME
Cytochrome P450 1A2, sequence (P05177 whole entry): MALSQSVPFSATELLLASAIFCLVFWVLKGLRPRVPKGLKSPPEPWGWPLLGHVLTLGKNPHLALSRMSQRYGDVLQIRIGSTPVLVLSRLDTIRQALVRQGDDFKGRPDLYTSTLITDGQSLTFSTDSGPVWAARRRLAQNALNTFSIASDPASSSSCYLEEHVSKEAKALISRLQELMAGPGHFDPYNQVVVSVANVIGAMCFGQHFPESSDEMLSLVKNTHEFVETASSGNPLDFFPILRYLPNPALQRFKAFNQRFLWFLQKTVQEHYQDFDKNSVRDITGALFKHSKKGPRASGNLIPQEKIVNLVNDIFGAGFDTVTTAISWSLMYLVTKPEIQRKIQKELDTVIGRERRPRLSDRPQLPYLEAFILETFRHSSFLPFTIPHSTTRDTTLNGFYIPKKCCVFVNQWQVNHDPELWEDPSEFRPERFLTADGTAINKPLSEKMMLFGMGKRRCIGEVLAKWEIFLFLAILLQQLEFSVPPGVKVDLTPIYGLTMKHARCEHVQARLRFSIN

[7] = Oral bioavailability in Wistar rat at 1 to 3 mg/kg administered via gavage using EtOH/PEG400/H2O 10/40/50 formulation by LC-MS/MS analysis; format: ADME, organism-based; settings: in vivo, dose 1-3 mg/kg
Cytochrome P450 2D6 = Cytochrome P450 2D6 (Homo sapiens, UniProt P10635); assay: Inhibition of CYP2D6 in human liver microsomes using dextromethorphan as substrate incubated for 15 mins in presence of NADPH generating system by LC-MS/MS analysis; format: ADME
Cytochrome P450 2D6, sequence (P10635 whole entry): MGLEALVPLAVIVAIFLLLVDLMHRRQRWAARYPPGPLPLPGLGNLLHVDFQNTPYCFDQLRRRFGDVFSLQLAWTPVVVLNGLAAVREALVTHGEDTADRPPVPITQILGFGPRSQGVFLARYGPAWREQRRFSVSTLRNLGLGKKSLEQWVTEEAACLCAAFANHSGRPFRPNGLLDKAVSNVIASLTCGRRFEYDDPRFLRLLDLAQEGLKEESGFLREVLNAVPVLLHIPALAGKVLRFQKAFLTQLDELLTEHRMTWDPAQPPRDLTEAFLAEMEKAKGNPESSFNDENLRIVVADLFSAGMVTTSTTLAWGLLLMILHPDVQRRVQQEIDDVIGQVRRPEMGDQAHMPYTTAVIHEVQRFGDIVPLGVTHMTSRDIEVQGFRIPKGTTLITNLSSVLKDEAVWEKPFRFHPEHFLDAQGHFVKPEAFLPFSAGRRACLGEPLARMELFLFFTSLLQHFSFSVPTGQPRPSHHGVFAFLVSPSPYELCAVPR

Cytochrome P450 2C9 = Cytochrome P450 2C9 (Homo sapiens, UniProt P11712); assay: Inhibition of CYP2C9 in human liver microsomes using diclofenac as substrate incubated for 15 mins in presence of NADPH generating system by LC-MS/MS analysis; format: ADME
Cytochrome P450 2C9, sequence (P11712 whole entry): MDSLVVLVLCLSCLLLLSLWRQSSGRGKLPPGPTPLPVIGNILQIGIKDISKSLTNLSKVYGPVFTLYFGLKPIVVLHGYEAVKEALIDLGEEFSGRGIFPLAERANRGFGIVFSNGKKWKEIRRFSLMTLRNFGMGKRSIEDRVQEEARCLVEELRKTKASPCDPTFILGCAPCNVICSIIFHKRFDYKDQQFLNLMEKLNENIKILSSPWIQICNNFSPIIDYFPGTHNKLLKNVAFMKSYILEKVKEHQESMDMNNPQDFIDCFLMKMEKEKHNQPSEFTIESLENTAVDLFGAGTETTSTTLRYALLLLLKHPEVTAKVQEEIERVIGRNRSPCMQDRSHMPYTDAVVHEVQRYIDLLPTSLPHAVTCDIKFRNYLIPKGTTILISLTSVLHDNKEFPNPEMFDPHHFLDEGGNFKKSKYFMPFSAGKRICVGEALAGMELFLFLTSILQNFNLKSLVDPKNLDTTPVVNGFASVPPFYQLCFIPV

[8] = molecular target: Prostaglandin E2 receptor EP3 subtype (Homo sapiens) (UniProt P43115); assay: Displacement of [3H]prostaglandin E2 from full-length recombinant human EP3 receptor expressed in HEK293 cell membranes measured after 120 mins by scintillation counting method
Prostaglandin E2 receptor EP3 subtype (Homo sapiens), sequence (P43115 whole entry): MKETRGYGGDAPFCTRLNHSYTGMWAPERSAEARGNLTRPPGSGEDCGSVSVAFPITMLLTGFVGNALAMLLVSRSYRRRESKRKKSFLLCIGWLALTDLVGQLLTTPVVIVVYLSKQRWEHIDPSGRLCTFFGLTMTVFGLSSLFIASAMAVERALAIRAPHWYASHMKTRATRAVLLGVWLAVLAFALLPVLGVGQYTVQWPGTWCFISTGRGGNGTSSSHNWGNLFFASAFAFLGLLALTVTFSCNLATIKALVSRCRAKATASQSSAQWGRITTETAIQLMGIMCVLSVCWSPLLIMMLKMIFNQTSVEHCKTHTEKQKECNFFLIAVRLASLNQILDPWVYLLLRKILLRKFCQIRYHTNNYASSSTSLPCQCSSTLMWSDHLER

Homo sapiens [9] = species: Homo sapiens; assay: Selectivity ratio of IC50 for displacement of [3H]PGD2 from full-length recombinant human DP1 receptor expressed in Chem-1 cell membranes to IC50 for displacement of [3H]PGF2alpha from full-length recombinant human FP receptor expressed in HEK293 cell membranes
[10] = molecular target: Prostaglandin E2 receptor EP4 subtype (Homo sapiens, UniProt P35408); assay: Displacement of [3H]prostaglandin E2 from full-length recombinant human EP4 receptor expressed in HEK293 cell membranes measured after 120 mins by scintillation counting method
Prostaglandin E2 receptor EP4 subtype, sequence (P35408 whole entry): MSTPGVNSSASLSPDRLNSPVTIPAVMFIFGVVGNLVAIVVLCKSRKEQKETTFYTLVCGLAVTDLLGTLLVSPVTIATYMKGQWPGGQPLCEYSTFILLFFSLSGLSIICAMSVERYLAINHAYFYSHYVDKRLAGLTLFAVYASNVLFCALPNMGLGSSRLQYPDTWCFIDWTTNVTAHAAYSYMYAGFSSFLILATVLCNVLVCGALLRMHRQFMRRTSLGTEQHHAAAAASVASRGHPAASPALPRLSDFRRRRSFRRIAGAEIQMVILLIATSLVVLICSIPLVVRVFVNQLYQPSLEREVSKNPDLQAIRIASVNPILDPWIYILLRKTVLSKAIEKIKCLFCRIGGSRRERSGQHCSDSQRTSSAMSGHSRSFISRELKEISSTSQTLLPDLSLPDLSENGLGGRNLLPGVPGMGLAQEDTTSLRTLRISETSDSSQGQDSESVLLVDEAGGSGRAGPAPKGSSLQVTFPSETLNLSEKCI

Prostacyclin receptor = Prostacyclin receptor (Homo sapiens, UniProt P43119); assay: Displacement of [3H]PGD2 from full-length recombinant human IP receptor expressed in HEK293 cell membranes measured after 60 mins by scintillation counting method
Prostacyclin receptor, sequence (P43119 whole entry): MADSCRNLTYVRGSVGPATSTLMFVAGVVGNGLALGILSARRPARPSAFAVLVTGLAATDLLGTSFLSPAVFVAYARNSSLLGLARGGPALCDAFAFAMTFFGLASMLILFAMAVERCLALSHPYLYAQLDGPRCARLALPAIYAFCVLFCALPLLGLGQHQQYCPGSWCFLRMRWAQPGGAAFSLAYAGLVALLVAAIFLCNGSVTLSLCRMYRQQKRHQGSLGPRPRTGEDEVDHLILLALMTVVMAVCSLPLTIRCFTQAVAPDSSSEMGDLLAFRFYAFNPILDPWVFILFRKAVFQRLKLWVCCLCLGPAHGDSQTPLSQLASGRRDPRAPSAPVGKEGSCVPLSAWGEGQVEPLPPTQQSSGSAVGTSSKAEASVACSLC

[11] = molecular target: Prostaglandin D2 receptor (Homo sapiens) (UniProt Q13258); assay: Displacement of [3H]PGD2 from full-length recombinant human DP1 receptor expressed in Chem-1 cell membranes measured after 120 mins by scintillation counting method
Homo sapiens [12] = species: Homo sapiens; assay: Selectivity ratio of IC50 for displacement of [3H]prostaglandin E2 from full-length recombinant human EP3 receptor expressed in HEK293 cell membranes to IC50 for displacement of [3H]PGF2alpha from full-length recombinant human FP receptor expressed in HEK293 cell membranes
[13] = molecular target: T1, Prostaglandin F2-alpha receptor (Homo sapiens, UniProt P43088); assay: Antagonist activity at human FPR expressed in human Chem-1 cells assessed as inhibition of PGF2alpha-induced calcium flux preincubated for 10 mins followed by PGF2alpha stimulation and measured for 120 secs by fluo-8 AM dye based fluorescence assay; format: functional, cell-based
T1 sequence (P43088 whole entry): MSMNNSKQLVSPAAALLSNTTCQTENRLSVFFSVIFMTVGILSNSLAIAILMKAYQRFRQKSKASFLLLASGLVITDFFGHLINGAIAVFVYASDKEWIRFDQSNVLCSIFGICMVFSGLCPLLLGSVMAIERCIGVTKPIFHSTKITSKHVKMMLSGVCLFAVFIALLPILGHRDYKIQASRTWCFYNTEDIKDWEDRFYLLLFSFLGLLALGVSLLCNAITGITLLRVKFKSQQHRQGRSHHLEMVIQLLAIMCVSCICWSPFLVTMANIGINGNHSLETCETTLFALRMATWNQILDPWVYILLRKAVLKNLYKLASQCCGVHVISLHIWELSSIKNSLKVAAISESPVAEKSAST

Homo sapiens [14] = species: Homo sapiens; assay: Selectivity ratio of IC50 for displacement of [3H]prostaglandin E2 from full-length recombinant human EP1 receptor expressed in HEK293 cell membranes to IC50 for displacement of [3H]PGF2alpha from full-length recombinant human FP receptor expressed in HEK293 cell membranes
[15] = molecular target: Prostaglandin E2 receptor EP1 subtype (Homo sapiens) (UniProt P34995); assay: Displacement of [3H]prostaglandin E2 from full-length recombinant human EP1 receptor expressed in HEK293 cell membranes measured after 60 mins by scintillation counting method
Prostaglandin E2 receptor EP1 subtype (Homo sapiens), sequence (P34995 whole entry): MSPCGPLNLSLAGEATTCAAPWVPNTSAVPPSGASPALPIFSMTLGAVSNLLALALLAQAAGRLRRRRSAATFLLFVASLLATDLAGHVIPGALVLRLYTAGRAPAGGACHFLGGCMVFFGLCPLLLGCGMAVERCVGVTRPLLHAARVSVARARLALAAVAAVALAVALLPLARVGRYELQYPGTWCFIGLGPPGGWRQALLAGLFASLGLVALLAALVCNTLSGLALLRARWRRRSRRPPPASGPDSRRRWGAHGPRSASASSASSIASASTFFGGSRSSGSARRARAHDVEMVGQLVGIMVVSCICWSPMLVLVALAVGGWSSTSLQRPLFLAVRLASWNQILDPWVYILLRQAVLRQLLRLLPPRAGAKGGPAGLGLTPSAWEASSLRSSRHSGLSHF

Homo sapiens [16] = species: Homo sapiens; assay: Selectivity ratio of IC50 for displacement of [3H]prostaglandin E2 from full-length recombinant human EP2 receptor expressed in HEK293 cell membranes to IC50 for displacement of [3H]PGF2alpha from full-length recombinant human FP receptor expressed in HEK293 cell membranes
[17] = molecular target: T1, Prostaglandin F2-alpha receptor; assay: Displacement of [3H]PGF2alpha from full-length recombinant human FP receptor expressed in HEK293 cell membranes measured after 60 mins by scintillation counting method
Homo sapiens [18] = species: Homo sapiens; assay: Selectivity ratio of IC50 for displacement of [3H]PGD2 from full-length recombinant human IP receptor expressed in HEK293 cell membranes to IC50 for displacement of [3H]PGF2alpha from full-length recombinant human FP receptor expressed in HEK293 cell membranes
[19] = molecular target: Prostaglandin E2 receptor EP2 subtype (Homo sapiens, UniProt P43116); assay: Displacement of [3H]prostaglandin E2 from full-length recombinant human EP2 receptor expressed in HEK293 cell membranes measured after 120 mins by scintillation counting method
Prostaglandin E2 receptor EP2 subtype, sequence (P43116 whole entry): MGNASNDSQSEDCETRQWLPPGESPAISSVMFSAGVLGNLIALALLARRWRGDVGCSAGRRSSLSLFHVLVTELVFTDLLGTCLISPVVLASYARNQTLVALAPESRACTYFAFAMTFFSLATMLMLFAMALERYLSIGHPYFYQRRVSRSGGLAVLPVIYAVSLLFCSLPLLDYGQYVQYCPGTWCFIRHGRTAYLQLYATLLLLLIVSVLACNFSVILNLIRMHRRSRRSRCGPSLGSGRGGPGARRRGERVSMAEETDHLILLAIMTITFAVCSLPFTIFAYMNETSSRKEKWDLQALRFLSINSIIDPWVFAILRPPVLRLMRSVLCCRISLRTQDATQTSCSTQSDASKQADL

Mus musculus [20] = assay: Antifibrotic activity in silica-induced pulmonary fibrosis C57Bl6J mouse model assessed as decrease in lung MCP1 production at 3 to 30 mg/kg, po bid for 9 days measured post-last dose by Bio-Rad analysis; format: functional, organism-based; settings: dose mg/kg 3-30, time 9.0 day
Mus musculus [21] = assay: Antifibrotic activity in silica-induced pulmonary fibrosis C57Bl6J mouse model assessed as decrease in lung IL1beta production at 3 to 30 mg/kg, po bid for 9 days measured post-last dose by Bio-Rad analysis; format: functional, organism-based; settings: dose mg/kg 3-30, time 9.0 day
Mus musculus [22] = assay: Antifibrotic activity in silica-induced pulmonary fibrosis C57Bl6J mouse model assessed as decrease in lung osteopontin production at 3 to 30 mg/kg, po bid for 9 days measured post-last dose by Bio-Rad analysis; format: functional, organism-based; settings: dose mg/kg 3-30, time 9.0 day
[23] = molecular target: Prostaglandin F2-alpha receptor (Mus musculus) (UniProt P43117); assay: Antagonist activity at FPR in mouse NIH3T3 cells co-transfected with mtClytin assessed as inhibition of PGF2alpha-induced calcium flux preincubated for 5 mins followed by PGF2alpha stimulation and measured for 60 secs by calcium dye based fluorescence assay; format: functional, cell-based; settings: filed as antagonist, time 6.0 min
[24] = Lipophilicity, log D of compound at pH 7.5 by HPLC analysis; settings: buffer
[25] = Clearance in Wistar rat at 0.3 to 1 mg/kg, iv administered as bolus dose or 15 mins infusion by LC-MS/MS analysis; format: ADME, organism-based; settings: in vivo, dose 0.3-1 mg/kg; for clearance: Wistar
[26] = Induction of CYP3A4 mRNA expression in human hepatocytes supplemented with fresh medium containing compounds daily for 2 days measured 24 hrs post last dose by qRT-PCR analysis; settings: 72 h
[27] = Toxicity in Wistar rat up to 200 mg/kg/day, po administered for 14 days; format: organism-based; settings: in vivo, 336 h, time 14 day
[28] = Maximum oral bioavailability in rat hepatocytes based well stirred liver model at 1 uM measured after 2 to 90 mins by LC-MS/MS analysis; format: ADME, Hepatocyte; settings: time 2-90 min, read-out: Fmax
[29] = Protein binding in pooled human plasma assessed as unbound fraction incubated for 6 hrs by LC-MS/MS analysis based equilibrium dialysis method; format: ADME, cell-free
[30] = Apparent permeability in human Caco-2 cells measured after 2 hrs by HPLC analysis; format: ADME, cell-based

Cc1c(-c2ccccc2)nc2ccc(Br)cc2c1C(=O)Nc1ccc(C(N)=O)cc1F
CLhep predicted at 1 µM [1]: 58.3 mL/min/kg | efflux ratio at 2 h [2]: 18 | Ratio IC50 (Homo sapiens [3]): 16

Cc1c(-c2ccccc2)nc2ccc(Br)cc2c1C(=O)NC12CCC(C(=O)O)(CC1)CC2
clearance [4]: 0.5 mL/min/kg | half-life [5]: 15 h | IC50 (Cytochrome P450 2C8): > 10 µM | IC50 (Cytochrome P450 3A4): > 10 µM | bioavailability [6]: 90% | IC50 (Cytochrome P450 1A2): > 10 µM | bioavailability [7]: 100% | IC50 (Cytochrome P450 2D6): > 10 µM | IC50 (Cytochrome P450 2C9): > 10 µM

Cc1c(-c2cccs2)nc2ccc(Br)cc2c1C(=O)NCCc1cccnc1
inhibition [8]: inactive | Ratio IC50 (Homo sapiens [9]): > 3.1 | inhibition [10]: inactive | inhibition (Prostacyclin receptor): inactive | inhibition [11]: inactive | Ratio IC50 (Homo sapiens [12]): > 3.1 | IC50 [13]: 1.8 µM | Ratio IC50 (Homo sapiens [14]): > 3.1 | inhibition [15]: inactive | Ratio IC50 (Homo sapiens [16]): > 3.1 | IC50 [17]: 1.4 µM | Ratio IC50 (Homo sapiens [18]): > 3.1 | IC50 [19]: 4.4 µM | Ratio IC50 (Homo sapiens [3]): > 3.1

Cc1c(N2CCCC2)nc2ccc(Br)cc2c1C(=O)NC[C@H](CCC(=O)O)c1ccccc1Cl
Activity (Mus musculus [20]): Active | Activity (Mus musculus [21]): Active | Activity (Mus musculus [22]): Active | fIC50 [23]: 5.2 nM

Cc1c(-c2ccccc2)nc2ccc(Br)cc2c1C(=O)NCC(CCC(=O)O)c1ccccc1Cl (single isomer, unassigned; (+))
half-life [5]: 5.5 h | logD [24]: 2.2 | IC50 [13]: 0.009 µM | IC50 (Cytochrome P450 3A4): > 20 µM | clearance [25]: 30 mL/min/kg | bioavailability [7]: 75%

Cc1c(-c2ccccc2)nc2ccc(Br)cc2c1C(=O)NCC(CC(=O)O)c1ccccc1Cl (single isomer, unassigned; (+))
half-life [5]: 2.6 h | NOAEL [26]: 6 µM | logD [24]: 2 | IC50 (Cytochrome P450 3A4): > 20 µM | Activity [27]: Non-Toxic | CL ([25]; 0.25 h): 43.3 mL/min/kg | bioavailability [7]: 90%

COc1ccccc1C(C)CNC(=O)c1c(C)c(-c2ccccc2)nc2ccc(Br)cc12 (single isomer, unassigned; (-))
IC50 [13]: 0.014 µM | Fh at 1 µM [28]: 6% | fraction unbound at 6 h [29]: < 0.01 | CLhep predicted at 1 µM [1]: 65 mL/min/kg | clearance [25]: 63.3 mL/min/kg | IC50 [17]: < 0.001 µM

Cc1c(-c2ccccc2)nc2ccc(Br)cc2c1C(=O)NCC(C(=O)O)c1ccccc1Cl (stereo in doubt; 31)
Fh at 1 µM [28]: 78% | CLhep predicted at 1 µM [1]: 15 mL/min/kg | clearance [25]: 55 mL/min/kg

Cc1c(-c2ccccc2)nc2ccc(Br)cc2c1C(=O)NCC(CCCC(=O)O)c1ccccc1Cl (stereo in doubt; 44)
IC50 (Cytochrome P450 3A4): 13 µM | Papp at 2 h [30]: 40.1 ×10⁻⁶ cm/s | clearance [25]: 33.3 mL/min/kg
